Measured values as given in patent US9924715B2, “Zinc or copper (II) salt and use thereof as a biocide” (LABORATORIYA BIO ZET, LLC, priority 2014, dated 2018).
Several values for one entry are separate records, joined by “and”; a condition that tells them apart may be missing. Identical values can stand only once.

Columns and labels:
Type in all cases: cell-based
fungal spores = test: Fungicidal activity, GOST 30028.4-2006, resistance of treated materials
Description: The fungicidal activity of the proposed salts is determined according to GOST 30028.4-2006 by testing samples of various materials treated with these salts for resistance to fungal spores. Test results in terms of tolerance time (in days) are given in Table 4 wherein tolerance time for untreated materials are given for comparison.

[1] = system: clinical strain P. aeruginosa; test: Bactericidal activity: exposure in solution, neutralization, inoculation on solid medium; parameters: key to Bacterial growth after exposure (colony-forming units in 1 ml): NG—no growth; CG—confluent growth; details: for Bactericidal effect: 4.0%
S. aureus No. 1257 = test: as above; parameters: key to Bacterial growth after exposure (colony-forming units in 1 ml): NG—no growth; CG—confluent growth; details: for Bacterial growth after exposure (colony-forming units in 1 ml): S. aureus 1257; for Bactericidal effect: S. aureus No. 1257
E. coli No. 906 = test: as above; parameters: key to Bacterial growth after exposure (colony-forming units in 1 ml): NG—no growth; CG—confluent growth; details: for Bacterial growth after exposure (colony-forming units in 1 ml): E. coli 906; for Bactericidal effect: E. coli No. 906
[2] = Emulsion polyvinyl chloride, additive content 5 wt %, untreated control 6 days
[3] = Paper impregnated with latex SKS 65 GP, additive content 5 wt %, untreated control 4 days

Row | Compound | Tolerance time (fungal spores; [2]) [days] | Tolerance time (fungal spores; [3]) [days] | Bacterial growth after exposure (colony-forming units in 1 ml) (S. aureus No. 1257; 2.0 wt %, exposure 5 min) | Bacterial growth after exposure (colony-forming units in 1 ml) (S. aureus No. 1257; 2.0 wt %, exposure 15 min) | Bacterial growth after exposure (colony-forming units in 1 ml) (S. aureus No. 1257; 2.0 wt %, exposure 30 min) | Bacterial growth after exposure (colony-forming units in 1 ml) (S. aureus No. 1257; 4.0 wt %, exposure 5 min) | Bacterial growth after exposure (colony-forming units in 1 ml) (S. aureus No. 1257; 4.0 wt %, exposure 15 min) | Bacterial growth after exposure (colony-forming units in 1 ml) (S. aureus No. 1257; 4.0 wt %, exposure 30 min) | Bacterial growth after exposure (colony-forming units in 1 ml) (S. aureus No. 1257; 4.0 wt %, exposure 60 min) | Bacterial growth after exposure (colony-forming units in 1 ml) (E. coli No. 906; 2.0 wt %, exposure 5 min) | Bacterial growth after exposure (colony-forming units in 1 ml) (E. coli No. 906; 2.0 wt %, exposure 15 min) [CFU] | Bacterial growth after exposure (colony-forming units in 1 ml) (E. coli No. 906; 2.0 wt %, exposure 30 min) | Bacterial growth after exposure (colony-forming units in 1 ml) (E. coli No. 906; 4.0 wt %, exposure 5 min) | Bacterial growth after exposure (colony-forming units in 1 ml) (E. coli No. 906; 4.0 wt %, exposure 15 min) | Bacterial growth after exposure (colony-forming units in 1 ml) (E. coli No. 906; 4.0 wt %, exposure 30 min) | Bacterial growth after exposure (colony-forming units in 1 ml) (E. coli No. 906; 4.0 wt %, exposure 60 min) | also measured
1 | C=CC(=O)[O-].CCCCCCCCCC(=O)[O-].[Cu+2] [Copper acrylate-caprinate] | 20 | 19 |  |  |  |  |  |  |  |  |  |  |  |  |  |  | Tolerance time (fungal spores; Paper impregnated with petrolatum base, additive content 5 wt %, untreated control 15 days): 21 days
2 | C=CC(=O)[O-].CCCCCCCCCCCCCCCCCC(=O)[O-].[Cu+2] [Copper acrylate-stearate] | 12 | 16 | CG | >300 CFU | 25 CFU | NG | NG | NG | NG | CG | 100 | 10 CFU | NG | NG | NG | NG | Bacterial growth after exposure (colony-forming units in 1 ml) ([1]; 2.0 wt %, exposure 5 min): CG; Bacterial growth after exposure (colony-forming units in 1 ml) ([1]; 2.0 wt %, exposure 15 min): CG; Bacterial growth after exposure (colony-forming units in 1 ml) ([1]; 2.0 wt %, exposure 30 min): CG; Bacterial growth after exposure (colony-forming units in 1 ml) ([1]; 2.0 wt %, exposure 60 min): CG; Bactericidal effect ([1]; exposure of more than 30 min): bactericidal effect; Bacterial growth after exposure (colony-forming units in 1 ml) ([1]; 4.0 wt %, exposure 5 min): CG; Bacterial growth after exposure (colony-forming units in 1 ml) ([1]; 4.0 wt %, exposure 15 min): >300 CFU; Bacterial growth after exposure (colony-forming units in 1 ml) ([1]; 4.0 wt %, exposure 60 min): NG; Bacterial growth after exposure (colony-forming units in 1 ml) (S. aureus No. 1257; 2.0 wt %, exposure 60 min): NG; Bactericidal effect (S. aureus No. 1257; 2.0%, exposure 60 min): sustained bactericidal effect; Bactericidal effect (S. aureus No. 1257; 4.0%, exposure from 5 min): sustained bactericidal effect; Bacterial growth after exposure (colony-forming units in 1 ml) (E. coli No. 906; 2.0 wt %, exposure 60 min): NG; Bactericidal effect (E. coli No. 906; 2.0%, exposure 60 min): sustained bactericidal effect; Bactericidal effect (E. coli No. 906; 4.0%, exposure from 5 min): sustained bactericidal effect
3 | C/C=C/C(=O)[O-].C=CC(=O)[O-].[Zn+2] [Zinc acrylate-crotonate, zinc acrylate-crotonate] |  |  | CG | CG | CG | 7 CFU | NG | NG | NG | 75 CFU | 42 | >300 CFU | NG | NG | NG | NG | Bacterial growth after exposure (colony-forming units in 1 ml) ([1]; 2.0 wt %, exposure 5 min): >300 CFU; Bacterial growth after exposure (colony-forming units in 1 ml) ([1]; 2.0 wt %, exposure 15 min): 10 CFU; Bacterial growth after exposure (colony-forming units in 1 ml) ([1]; 2.0 wt %, exposure 30 min): 4 CFU; Bactericidal effect ([1]; exposure from 15 min): sustained bactericidal effect; Bacterial growth after exposure (colony-forming units in 1 ml) ([1]; 4.0 wt %, exposure 5 min): 1 CFU; Bacterial growth after exposure (colony-forming units in 1 ml) ([1]; 4.0 wt %, exposure 15 min): NG; Bacterial growth after exposure (colony-forming units in 1 ml) ([1]; 4.0 wt %, exposure 30 min): NG; Bacterial growth after exposure (colony-forming units in 1 ml) ([1]; 4.0 wt %, exposure 60 min): NG; Bacterial growth after exposure (colony-forming units in 1 ml) (S. aureus No. 1257; 2.0 wt %, exposure 60 min): >300 CFU; Bactericidal effect (S. aureus No. 1257; 4.0%, exposure from 15 min): sustained bactericidal effect; Bactericidal effect (E. coli No. 906; 4.0%, exposure from 15 min): sustained bactericidal effect
4 | C=CC(=O)[O-].CCCCCCCCCCC(=O)[O-].[Zn+2] [Zinc acrylate-undecylate] | 10 | 12 |  |  |  |  |  |  |  |  |  |  |  |  |  |  | Tolerance time (fungal spores; Paper impregnated with petrolatum base, additive content 4.7 wt %, untreated control 15 days): 20 days
5 | Copper methacrylate-sorbate |  |  | >300 CFU | 85 CFU | 35 CFU and 43 CFU | NG | NG | NG | NG | >300 CFU | 78 | 45 CFU and 53 CFU | 1 CFU | NG | NG | NG | Bactericidal effect ([1]; exposure from 15 min): sustained bactericidal effect; Bactericidal effect (S. aureus No. 1257; 4.0%, exposure from 15 min): sustained bactericidal effect; Bacterial growth after exposure (colony-forming units in 1 ml) (E. coli No. 906; 2.0 wt %, exposure 60 min): 5 CFU and 4 CFU; Bactericidal effect (E. coli No. 906; 4.0%, exposure from 15 min): sustained bactericidal effect
6 | Copper methacrylate-valerate | 16 |  |  |  |  |  |  |  |  |  |  |  |  |  |  |  | 
7 | Zinc methacrylate-butyrate | 11 | 10 |  |  |  |  |  |  |  |  |  |  |  |  |  |  | 
8 | Zinc methacrylate-myristate | 12 |  |  |  |  |  |  |  |  |  |  |  |  |  |  |  | 
